Measurements published in the supplement of paper PMC11061612.

Columns and labels:
Assay in all cases: combination Emax (second highest fraction inhibited in the dose matrix, 72 h); higher = more inhibition; extreme values may be limits of the assay
[1] = system: PANC-04-03 (Pancreatic Carcinoma)
Outline: (§1)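 Cell lines grown in DMEM/F12 or RPMI with 10% FBS were plated in 1536-well plates and held 24 hours at 37°C, 5% CO2 before 72 hours of exposure to two-drug dose matrices, with DMSO typically at 0.2%. CellTiter-Glo 2.0 luminescence gave viability, which was converted to inhibition. Vehicle wells were set to 0 and blank wells to 1. Combination Emax is the second-highest inhibition in the matrix, and Bliss excess is the observed combination effect minus the expected EA + EB − EA·EB, where EA and EB are the single-agent effects.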

[2] = system: MLMA (Other Blood Carcinomas)
Outline: as §1

[3] = system: OVCAR-4 (Ovarian Carcinoma)
Outline: as §1

[4] = system: MIA-PaCa-2 (Pancreatic Carcinoma)
Outline: as §1

PWR-1E (Non-Cancerous) = system: PWR-1E (Non-Cancerous)
Outline: as §1

[5] = system: Caov-4 (Ovarian Carcinoma)
Outline: as §1

[6] = system: EoL-1-cell (Acute Myeloid Leukemia)
Outline: as §1

[7] = system: KMOE-2 (Acute Myeloid Leukemia)
Outline: as §1

[8] = system: BT-549 (Breast Carcinoma)
Outline: as §1

UACC-62 (Melanoma) = system: UACC-62 (Melanoma)
Outline: as §1

[9] = system: NCI-H727 (Other Solid Carcinomas)
Outline: as §1

[10] = system: NUGC-3 (Gastric Carcinoma)
Outline: as §1

YH-13 (Glioblastoma) = system: YH-13 (Glioblastoma)
Outline: as §1

NB69 (Neuroblastoma) = system: NB69 (Neuroblastoma)
Outline: as §1

[11] = system: KARPAS-299 (T-Cell Non-Hodgkin's Lymphoma)
Outline: as §1

[12] = system: VA-ES-BJ (Other Solid Carcinomas)
Outline: as §1

[13] = system: AMO-1 (Plasma Cell Myeloma)
Outline: as §1

[14] = system: NCI-H1915 (Non-Small Cell Lung Carcinoma)
Outline: as §1

[15] = system: HGC-27 (Gastric Carcinoma)
Outline: as §1

[16] = system: RF-48 (B-Cell Non-Hodgkin's Lymphoma)
Outline: as §1

SMILES | combination Emax [1] | combination Emax [2] | combination Emax [3] | combination Emax [4] | combination Emax (PWR-1E (Non-Cancerous)) | combination Emax [5] | combination Emax [6] | combination Emax [7] | combination Emax [8] | combination Emax (UACC-62 (Melanoma)) | combination Emax [9] | combination Emax [10] | combination Emax (YH-13 (Glioblastoma)) | combination Emax (NB69 (Neuroblastoma)) | combination Emax [11] | combination Emax [12] | combination Emax [13] | combination Emax [14] | combination Emax [15] | combination Emax [16]
CN(CCO)CC[C@H](CSc1ccccc1)Nc1ccc(S(=O)(=O)NC(=O)c2ccc(N3CCC([C@@H](O)c4ccccc4-c4ccc(Cl)cc4)CC3)cc2)cc1S(=O)(=O)C(F)(F)F [AZD4320] + CN(C)CCCOc1ccc(-c2ccc3ncc4c(c3c2)n(C2CCOCC2)c(=O)n4C)cn1 [AZD0156] (first compound max 1 µM, 7x7, partner max 1 µM) | 0.192 | 0.374 | 0.184 | 0.141 | 0.162 | 0.276 | 1 | 0.847 | 0.227 | 0.182 | 0.214 | 0.151 | 0.134 | 0.757 | 0.13 | 0.164 | 0.0251 | 0.271 | 0.274 | 0.773
CCN(CCO)CCCOc1ccc2c(Nc3cc(CC(=O)Nc4cccc(F)c4)[nH]n3)ncnc2c1 [AZD2811] + O=C(c1cc(Cc2n[nH]c(=O)c3ccccc23)ccc1F)N1CCN(C(=O)C2CC2)CC1 [Olaparib] (first compound max 1 µM, 7x7, partner max 10 µM) | 0.227 | 0.223 | 0.227 | 0.469 | 0.538 | 0.19 | 1 | 0.276 | 0.244 | 0.258 | 0.346 | 0.274 | 0.474 | 0.659 | 0.423 | 0.251 | 0.354 | 0.312 | 0.915 | 0.294
COc1cccc2c1C(=O)c1c(O)c3c(c(O)c1C2=O)C[C@@](O)(C(=O)CO)C[C@@H]3O[C@H]1C[C@H](N)[C@H](O)[C@H](C)O1 [Doxorubicin] + Cc1cc2ncnn2cc1Nc1ncc2c(n1)n(C1CCOCC1)c(=O)n2C [AZD7648] (first compound max 1 µM, 7x7, partner max 10 µM) | 0.278 | 0.893 | 0.451 | 0.949 | 0.89 | 0.913 | 1 | 0.911 | 0.441 | 0.935 | 0.147 | 0.907 | 0.754 | 0.91 | 0.941 | 0.758 | 0.973 | 0.486 | 0.928 | 0.836
NC1(C(=O)N[C@@H](CCO)c2ccc(Cl)cc2)CCN(c2ncnc3[nH]ccc23)CC1 [Capivasertib] + COc1nnc2ccc(N3CCC(c4ccc(OCCN5CCN(C)C(=O)[C@H]5C)cc4)CC3)nn12 [AZD5153] (first compound max 10 µM, 7x7, partner max 1 µM) | 0.495 | 0.994 | 0.398 | 0.813 | 0.861 | 0.526 | 1 | 0.831 | 0.602 | 0.56 | 0.434 | 0.617 | 0.723 | 0.91 | 0.741 | 0.487 | 0.911 | 0.588 | 0.972 | 0.474
NC1(C(=O)N[C@@H](CCO)c2ccc(Cl)cc2)CCN(c2ncnc3[nH]ccc23)CC1 [Capivasertib] + Cn1cnc2c(F)c(Nc3ccc(Br)cc3Cl)c(C(=O)NOCCO)cc21 [Selumetinib] (first compound max 10 µM, 7x7, partner max 10 µM) | 0.576 | 0.513 | 0.338 | 0.643 | 0.486 | 0.613 | 1 | 1 | 0.41 | 0.908 | 0.729 | 0.662 | 0.598 | 0.903 | 0.587 | 0.347 | 0.801 | 0.791 | 0.841 | 0.456
CC(=O)c1c(C)c2cnc(Nc3ccc(N4CCNCC4)cn3)nc2n(C2CCCC2)c1=O [Palbociclib] + CC1(C)CCC(CN2CCN(c3ccc(C(=O)NS(=O)(=O)c4ccc(NCC5CCOCC5)c([N+](=O)[O-])c4)c(Oc4cnc5[nH]ccc5c4)c3)CC2)=C(c2ccc(Cl)cc2)C1 [Venetoclax] (first compound max 10 µM, 7x7, partner max 1 µM) | 0.0967 | 0.683 | 0.0611 | 0.31 | 0.149 | 0.18 | 0.994 | 0.215 | 0.308 | 0.0969 | 0.232 | 0.339 | 0.344 | 0.762 | 0.495 | 0.257 | 0.273 | 0.466 | 0.628 | 0.254
COc1cccc(OCCCN)c1-c1cc(Nc2cnc(C#N)cn2)n[nH]1 [Prexasertib] + CN(C)CCCOc1ccc(-c2ccc3ncc4c(c3c2)n(C2CCOCC2)c(=O)n4C)cn1 [AZD0156] (first compound max 1 µM, 7x7, partner max 1 µM) | 0.564 | 0.957 | 0.771 | 0.754 | 0.953 | 0.964 | 0.998 | 0.945 | 0.707 | 0.828 | 0.717 | 0.726 | 0.777 | 0.915 | 0.983 | 0.766 | 0.98 | 0.588 | 0.858 | 0.744
Cn1cnc2c(F)c(Nc3ccc(Br)cc3Cl)c(C(=O)NOCCO)cc21 [Selumetinib] + CCN(CCO)CCCOc1ccc2c(Nc3cc(CC(=O)Nc4cccc(F)c4)[nH]n3)ncnc2c1 [AZD2811] (first compound max 10 µM, 7x7, partner max 1 µM) | 0.479 | 0.286 | 0.268 | 0.657 | 0.579 | 0.551 | 1 | 0.999 | 0.3 | 0.815 | 0.622 | 0.551 | 0.429 | 0.921 | 0.252 | 0.327 | 0.481 | 0.6 | 0.71 | 0.312
NC1(C(=O)N[C@@H](CCO)c2ccc(Cl)cc2)CCN(c2ncnc3[nH]ccc23)CC1 [Capivasertib] + CC(C)n1c(=O)n(C)c2cnc3cc(F)c(-c4ccc(OCCCN5CCCCC5)nc4)cc3c21 [AZD1390] (first compound max 10 µM, 7x7, partner max 0.3 µM) | 0.318 | 0.452 | 0.162 | 0.188 | 0.4 | 0.245 | 0.874 | 0.33 | 0.353 | 0.572 | 0.35 | 0.339 | 0.541 | 0.341 | 0.376 | 0.307 | 0.633 | 0.287 | 0.852 | 0.44
COc1nnc2ccc(N3CCC(c4ccc(OCCN5CCN(C)C(=O)[C@H]5C)cc4)CC3)nn12 [AZD5153] + CCN(CCO)CCCOc1ccc2c(Nc3cc(CC(=O)Nc4cccc(F)c4)[nH]n3)ncnc2c1 [AZD2811] (first compound max 1 µM, 7x7, partner max 1 µM) | 0.487 | 0.915 | 0.467 | 0.88 | 0.782 | 0.597 | 1 | 0.901 | 0.593 | 0.478 | 0.404 | 0.579 | 0.585 | 0.952 | 0.847 | 0.579 | 0.912 | 0.486 | 0.82 | 0.418
Cn1cnc2c(F)c(Nc3ccc(Br)cc3Cl)c(C(=O)NOCCO)cc21 [Selumetinib] + CC(C)n1c(=O)n(C)c2cnc3cc(F)c(-c4ccc(OCCCN5CCCCC5)nc4)cc3c21 [AZD1390] (first compound max 10 µM, 7x7, partner max 0.3 µM) | 0.418 | 0.23 | 0.126 | 0.535 | 0.131 | 0.492 | 0.762 | 0.976 | 0.117 | 0.787 | 0.614 | 0.328 | 0.131 | 0.836 | 0.347 | 0.129 | 0.364 | 0.641 | 0.171 | 0.119
COc1cccc(OCCCN)c1-c1cc(Nc2cnc(C#N)cn2)n[nH]1 [Prexasertib] + Cc1cc2ncnn2cc1Nc1ncc2c(n1)n(C1CCOCC1)c(=O)n2C [AZD7648] (first compound max 1 µM, 7x7, partner max 10 µM) | 0.599 | 0.96 | 0.777 | 0.792 | 0.983 | 0.959 | 0.998 | 0.945 | 0.672 | 0.823 | 0.695 | 0.747 | 0.869 | 0.906 | 0.962 | 0.763 | 0.986 | 0.602 | 0.858 | 0.725
Cc1c2c(nn1C)CSCc1cc(n(C)n1)CSc1cc(c3ccccc3c1)OCCCc1c(C(=O)O)n(C)c3c-2c(Cl)ccc13 [AZD5991] + CC1(C)CCC(CN2CCN(c3ccc(C(=O)NS(=O)(=O)c4ccc(NCC5CCOCC5)c([N+](=O)[O-])c4)c(Oc4cnc5[nH]ccc5c4)c3)CC2)=C(c2ccc(Cl)cc2)C1 [Venetoclax] (first compound max 1 µM, 7x7, partner max 1 µM) | 0.175 | 0.248 | 0.188 | 0.451 | 0.199 | 0.616 | 1 | 0.709 | 0.45 | 0.962 | 0.258 | 0.196 | 0.145 | 0.877 | 0.968 | 0.145 | 1 | 0.187 | 0.895 | 0.497
